From patent US6890523B2 (priority 1999, dated 2005)

Tested on: C. difficile
Details: hamster; relapse/recurrence of CDAD
Procedure: Compounds were evaluated for their ability to inhibit the activity of C. difficile toxins the hamster model of C. difficile colitis. Male hamsters (80-100 g) were purchased Biobreeders Inc. (Falmouth, Mass.). All animals were maintained in groups of five in microisolator cages on autoclaved bedding (Beta Chips) and given free access to autoclaved chow and autoclaved, filtered water. Animals were rested approximately 1 week following arrival and prior to initiation of a study. A C. difficile strain initially isolated from a human C. difficile colitis was used to infect the animals. This strain (HUC2-4) produces moderate to high levels of toxins in vitro and in vivo. A suspension of 10^6-10^7 bacterial cells/ml was prepared from an overnight broth culture and 0.1 ml was administered by oral gavage on day −1. Twenty-four hours later, each animal was injected subcutaneously with Cleocin Phosphate IV® at a dose of 10 mg/kg. Polymers were administered to groups of ten animals by gavage three times daily (t.i.d). The dose of polymers was 25-100 mg/day, administered in three divided doses of 0.75 ml each. Initiation and duration of dosing varied according to the treatment regimens as described below. Animals were observed daily for morbidity or mortality. Additional parameters assessed were general appearance, time to onset of clinical signs, and presence or absence of diarrhea (“wet tail”). […]

Cc1ncc([N+](=O)[O-])n1CCO [metronidazole]
time to death after discontinuing metronidazole: 3 to 6 days
